Assay results as given in patent US10253017B2, “Derivatives of 2-aminopyridine as adenosine A2B receptor antagonists and ligands of the melatonin MT3 receptors” (PALOBIOFARMA, S.L., priority 2015, dated 2019).

Columns and labels:
adenosine A2A receptor = adenosine A2A receptor (Homo sapiens (Human), UniProt P29274); experiment: Adenosine A2A receptor binding (hA2A Ki)
adenosine A2B receptor = adenosine A2B receptor (Homo sapiens (Human), UniProt P29275); experiment: Adenosine A2B receptor subtype competition radioligand binding assay ([3H]DPCPX); conditions: human recombinant receptor (HEK-293 cells), [3H]DPCPX radioligand; read-out: hA2B, Ki
Text: Adenosine A2B Receptor Subtype Competition Radioligand Binding Assay

MT3 melatonin receptor = MT3 melatonin receptor (Mesocricetus auratus, UniProt A0ABM2YAB8); experiment: Binding to melatonin MT3 binding sites ([125I]2-iodomelatonin, hamster brain membranes); conditions: [125I]2-iodomelatonin radioligand
Description: Study of Binding to Melatonin MT3 Binding Sites
The experiment of binding to MT3 sites was carried out on hamster brain membranes using [^125I]2-iodomelatonin as radioligand in accordance with the protocol described by Pickering, D. S et al. (Pickering, D. S et al, 1990, Pharmacological characterization of melatonin binding sites in Syrian hamster hypothalamus, Eur J Pharmacol. 1990 Jan. 3; 175(1):71-7).

Chain of MT3 melatonin receptor (A0ABM2YAB8 1-231): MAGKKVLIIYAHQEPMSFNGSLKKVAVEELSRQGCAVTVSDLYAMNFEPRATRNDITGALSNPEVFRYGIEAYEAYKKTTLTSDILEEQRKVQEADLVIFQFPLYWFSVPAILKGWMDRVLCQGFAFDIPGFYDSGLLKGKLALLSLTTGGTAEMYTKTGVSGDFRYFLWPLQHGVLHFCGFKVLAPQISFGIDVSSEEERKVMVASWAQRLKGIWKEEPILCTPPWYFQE
Chain of adenosine A2B receptor (P29275 whole entry): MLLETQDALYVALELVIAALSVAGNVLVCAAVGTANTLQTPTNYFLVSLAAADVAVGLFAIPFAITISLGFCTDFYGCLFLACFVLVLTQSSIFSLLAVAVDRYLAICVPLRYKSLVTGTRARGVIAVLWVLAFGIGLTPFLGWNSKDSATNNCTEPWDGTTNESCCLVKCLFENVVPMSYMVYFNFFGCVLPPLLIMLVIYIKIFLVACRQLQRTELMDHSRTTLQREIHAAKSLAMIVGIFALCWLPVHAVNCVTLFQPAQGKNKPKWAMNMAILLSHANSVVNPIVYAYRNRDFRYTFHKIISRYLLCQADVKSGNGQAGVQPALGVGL
Chain of adenosine A2A receptor (P29274 whole entry): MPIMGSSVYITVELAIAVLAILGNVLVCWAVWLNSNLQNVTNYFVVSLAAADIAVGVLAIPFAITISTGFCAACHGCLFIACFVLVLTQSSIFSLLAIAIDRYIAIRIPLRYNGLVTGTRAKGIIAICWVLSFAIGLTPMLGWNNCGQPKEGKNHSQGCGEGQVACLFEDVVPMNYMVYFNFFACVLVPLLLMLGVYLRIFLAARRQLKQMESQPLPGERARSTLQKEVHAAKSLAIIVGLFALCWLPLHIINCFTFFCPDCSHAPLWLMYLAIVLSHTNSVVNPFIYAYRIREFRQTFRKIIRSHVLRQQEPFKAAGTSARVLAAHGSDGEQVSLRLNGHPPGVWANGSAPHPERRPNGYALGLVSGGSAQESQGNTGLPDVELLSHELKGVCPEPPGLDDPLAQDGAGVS

| Ki (adenosine A2A receptor) [nM] | Ki (adenosine A2B receptor) [nM] | IC50 (MT3 melatonin receptor) [nM] | Structure (SMILES) |
| --- | --- | --- | --- |
| > 5000 | 149 |  | Nc1ccc(-c2ccncc2F)c(-c2ccncc2)n1 [Example 11, 5-(3-fluoropyridin-4-yl)-6-(pyridin-4-yl)pyridin-2-amine] |
| 500 | 34.5 | 130 | Nc1nc(-c2cccnc2)c(-c2ccncc2)cc1Cl [Example 21, 3-chloro-6-(pyridin-3-yl)-5-(pyridin-4-yl)pyridin-2-amine] |
| 300 | 46.1 | 140 | Nc1nc(-c2cccnc2)c(-c2ccncc2)cc1Br [Example 22, 3-bromo-6-(pyridin-3-yl)-5-(pyridin-4-yl)pyridin-2-amine] |
| 4800 | 23.9 | 98 | Nc1nc(-c2cccnc2)c(-c2ccncc2F)cc1Cl [Example 23, 3-chloro-5-(3-fluoropyridin-4-yl)-6-(pyridin-3-yl)pyridin-2-amine] |
| > 5000 | 37 |  | Nc1nc(-c2cccnc2)c(-c2ccncc2F)cc1Br [Example 24, 3-bromo-5-(3-fluoropyridin-4-yl)-6-(pyridin-3-yl)pyridin-2-amine] |
| > 5000 | 150 | 250 | Nc1nc(-c2cncc(F)c2)c(-c2ccncc2F)cc1Cl [Example 27, 3-chloro-6-(5-fluoropyridin-3-yl)-5-(3-fluoropyridin-4-yl)pyridin-2-amine] |
| 555 | 12 |  | Nc1nc(-c2ccncc2)c(-c2ccncc2F)cc1Cl [Example 34, 3-chloro-5-(3-fluoropyridin-4-yl)-6-(pyridin-4-yl)pyridin-2-amine] |
| 1300 | 13 |  | Nc1nc(-c2ccncc2)c(-c2ccncc2F)cc1Br [Example 35, 3-bromo-5-(3-fluoropyridin-4-yl)-6-(pyridin-4-yl)pyridin-2-amine] |
| > 5000 | 24 |  | COc1ccc(-c2nc(N)c(Cl)cc2-c2ccncc2F)cn1 [Example 36, 3-chloro-5-(3-fluoropyridin-4-yl)-6-(6-methoxypyridin-3-yl)pyridin-2-amine] |
